Where a name gives a salt, the structure may show the parent alone. Read-outs that look alike come from different tables or passages of the source.
Experiments:
[1] = Formulation solution stability experiments at 5° C.; format: physicochemical; details: thermodynamic from solid; for solubility at 2 days: aqueous buffer, 5° C., read-out: citrate solubility (supernatant concentration)
Experimental: The five formulations are shown in Table 7-2, and the characterization results are summarized in Example 7. The procedure is summarized below. • 1. […] Add about 149 mg citric acid into the volumetric flask of formulation 1/2/3/4. • 3. Add about 2037 mg of the corresponding sugar into the volumetric flask of formulation 2/3/4. […] Dilute to volume with water for formulation 1/2/3/4. • 5. Dilute to volume with pH=4.0 citrate/phosphate buffer for formulation 5. […] Sonicate the samples for about 2 mins, and filter with 0.45 µm filter to obtain a clear solution. • 7. Fill and seal about 0.7 mL solutions into 32 separate HPLC vials per each formulation and store under corresponding conditions.
The stability samples were stored at 5° C., 25° C., 40° C. and 60° C. for 28 days. After 1 day, 3 days, 7 days, 14 days and 28 days storage, the stability samples at 25° C., 40° C. and 60° C. were taken out for HPLC and pH tests. After 28 days storage, the stability samples at 5° C. were taken out for HPLC and pH tests.
Some of the stability samples at 5° C. became a suspension after storage for 37 days. The samples were then stirred (1000 rpm) at 5° C. for two days, resulting in all samples becoming a suspension. Three of the samples under each condition were characterized to determine the identity of precipitate, solubility of citrate salt at 5° C., and stability at 5° C. • 1. Sample 1 of formulations 1/2/3/4/5 after stirring was isolated, XPRD/^1H NMR of the solid was obtained, and purity/assay/concentration/pH of the supernatant were tested. • 2. Sample 2 of formulations 1/2/3/4/5 after stirring was stored at RT for about 1 hour, and the solid dissolved. Purity/assay/concentration of the solution was tested. • 3. Sample 3 of formulations 1/2/3/4/5 after stirring was sonicated at RT for about 2-3 mins, and the solid dissolved.

[2] = Solubility profile of freeform Type D in citrate buffers; format: physicochemical; details: aqueous citrate buffer, aqueous buffer; citrate salt prepared in situ, summary statement; read-out: aqueous solubility
Experimental: Additional solids were added into the sample to generate suspension if clear solution was obtained. The suspension was equilibrated via stirring (1000 rpm) for 24 hours. The suspension was centrifuged to obtain precipitate and supernatants. Solubility and pH were tested for the supernatants after filtration, and the isolated precipitate was tested by XRPD.

CC(=O)NCC1CCN(Cc2cc(Oc3ccc(N4CCN(CCC(=O)O)CC4)nc3)nc(-c3cc(Cl)cc(Cl)c3)c2)CC1 [citrate salt]
solubility at 2 days ([1]; formulation solution with sugar (supernatant), presence of sugars, lowest value): 10.4 mg/mL
solubility at 2 days ([1]; formulation solution without sugars (supernatant), without sugars): 16.9 mg/mL
solubility ([1]; formulation solutions 1/2/3/4/5, aqueous buffer, rt, all solids dissolved once warmed up, read-out: solubility of citrate salt): > 20 mg/mL
solubility at 24 h [2]: > 50 mg/mL
